{
  "source": "patent US10513694B2",
  "about": "“Thienopyrrole compounds and uses thereof” (PROMEGA CORPORATION, priority 2015, dated 2019)",
  "key": {"[1]": {"system": "Nluc-HALOTAG labeled with NANOBRET 618 ligand", "assay": "Inhibition of extracellular BRET", "format": "cell-based", "conditions": "HEK293 Nluc-HDAC6; 10 ng/mL extracellular Nluc-HALOTAG/NANOBRET 618; 2 hrs", "method": "HEK293 were transiently transfected with an Nluc-HDAC6 fusion protein to orient Nluc-HDAC6 inside the cell. 24 hrs post-transfection, cells were treated 10 ng/mL purified Nluc-HALOTAG labeled with NANOBRET 618 ligand to simulate spurious extracellular BRET. Cells were then exposed to a compound response curve of the thienopyrrole compounds, JRW-0013, JRW-0051, JRW-0147, and JRW-0187, for 2 hrs. 10 μM furimazine was then added, and BRET ratio 610/450 nm was measured."}, "[2]": {"system": "Beta-2 Adrenergic Receptor-Nluc (B2AR-Nluc) fusion protein", "assay": "Cell permeability, B2AR-Nluc in HEK293 or HeLa cells -/+ digitonin", "format": "cell-based", "method": "HEK293 or HeLa cells were transiently transfected with Beta-2 Adrenergic Receptor-Nluc (B2AR-Nluc) fusion protein to anchor and orient Nluc cytosolically. 24 hrs post-transfection, cells were treated with −/+50 μg/mL digitonin to emulate a live and lytic scenario, respectively. Then, intact cells and permeabilized cells were exposed to a compound response curve of thienopyrrole compound up to 2 hrs. 10 μM furimazine (Promega Corp.) was added, and luminescence was measured. If a thienopyrrole compound (inhibitor) was permeable, the dose-response curves for both live and permeabilized cells overlapped. However, if a thienopyrrole compound was impermeable, the EC50 was right-shifted in the live cells relative to the permeabilized cells."}, "[3]": {"biological_target": "T1, purified Nluc (extracellular); Nluc-HALOTAG fusion protein (intracellular) (Oplophorus gracilirostris, UniProt Q9GV45, A31E/A60N/A81I/F95D/I117V/K70R/L54V/L99Q/M102K/N193R/P142E/Q151K/Q38R/Q45L/V71I/Y165I)", "T1 construct": "expressed in transfected cells; host or cells: HEK293 (Nluc-HaloTag); purified Nluc added from outside", "T1 sequence (Q9GV45 28-196 with tags or gaps with the stated changes limits assumed)": "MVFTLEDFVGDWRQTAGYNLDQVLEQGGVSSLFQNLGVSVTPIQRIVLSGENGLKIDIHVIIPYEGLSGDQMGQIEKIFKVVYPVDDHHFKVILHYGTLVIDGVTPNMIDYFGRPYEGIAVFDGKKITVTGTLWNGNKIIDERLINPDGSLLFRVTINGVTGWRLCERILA", "assay": "Inhibition of extracellular luciferase activity and enhancement of intracellular BRET", "format": "cell-based", "conditions": "HEK293 Nluc-HALOTAG + NANOBRET 618; 10 ng/mL extracellular purified Nluc; 2 hrs", "method": "HEK293 were transiently transfected with Nluc-HALOTAG fusion protein to orient Nluc-HALOTAG inside the cell. 24 hrs post-transfection, cells were labeled with NANOBRET 618 ligand to simulate specific intracellular BRET. Cells were then treated 10 ng/mL purified Nluc to simulate spurious extracellular luminescence. Cells were exposed to a compound response curve of the thienopyrrole compounds, JRW-0013, JRW-0051, JRW-0147, and JRW-0187, for 2 hrs. 10 μM furimazine was added, and the BRET ratio 610/450 nm was measured."}, "purified Nluc enzyme": {"biological_target": "T2, purified Nluc enzyme (Oplophorus gracilirostris, UniProt Q9GV45, A31E/A60N/A81I/F95D/I117V/K70R/L54V/L99Q/M102K/N193R/P142E/Q151K/Q38R/Q45L/V71I/Y165I)", "T2 construct": "purchased Promega Corporation", "T2 sequence (Q9GV45 28-196 with tags or gaps with the stated changes limits assumed)": "as above", "format": "biochemical", "conditions": "titration up to 100 μM final; RT 2 hrs; pro-substrate PBI-4442 + DTT", "procedure,_shortened": "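Purified Nluc enzyme with 20 mM DTT and a pro-substrate reduced by DTT to the Nluc substrate. 11-point 1:2 compound titrations (top 100 μM final) incubated 2 h at RT; luminescence read and IC50 fitted.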"}},
  "data": [
    {"compound": "CCN(C(=O)Cn1c(C(=O)N[C@H]2CC[C@H](C(=O)OC)CC2)cc2sccc21)c1cccc(C)c1", "note": "[JRW-0013, trans-methyl-4-(4-(2-(ethyl(m-tolyl)amino)-2-oxoethyl)-4H-thieno[3,2-b]pyrrole-5-carboxamido)cyclohexane-1-carboxylate]", "values": [
      {"measurement": "BRET ratio 610/450 nm across compound dose-response curve (FIGS. 12B-12E)", "setting": "[1]", "value": "BRET ratio remained constant"},
      {"measurement": "Cell permeability", "setting": "[2]", "value": "cell-permeable"},
      {"measurement": "BRET ratio 610/450 nm across compound dose-response curve (FIGS. 13B-13E)", "setting": "[3]", "value": "BRET ratio remained constant"},
      {"measurement": "Inhibition of purified Nluc enzyme (FIG. 2)", "setting": "purified Nluc enzyme", "value": "capable of inhibiting purified Nluc enzyme"}
    ]}
  ]
}
